SMILES strings stand for the structures. pIC50: −log10 of the molar value.

The target in this assay is benzodiazepine receptor. Put plainly: Benzodiazepine Receptor Binding Assay. The note with it: read-out: BZP-receptor Binding IC50; [3H]-diazepam 1.5 nM; rat brain crude synaptosome membrane; 0° C., 20 min.
For `CCc1nc(-c2cc3c(-c4cccc(C)c4)nccc3[nH]c2=O)no1` [Example 31], the pIC50 is 8.79.

As to `O=c1[nH]c2ccnc(-c3ccccc3F)c2cc1-c1noc(C2CC2)n1` [Example 116], the pIC50 was 8.93.

As for `CCCc1nccc2[nH]c(=O)c(-c3noc(CC)n3)cc12` [Example 15], the negative logarithm of the IC50 (pIC50) was 8.21.

Turning to `O=c1[nH]c2ccnc(-c3cccc(F)c3)c2cc1-c1nc(C2CC2)no1` [Example 237], the pIC50 was 8.73.

As to `CC(C)c1noc(-c2cc3c(-c4ccccc4F)nccc3[nH]c2=O)n1` [Example 226], the pIC50 was 8.85.

Consider `Cc1cccc(-c2nccc3[nH]c(=O)c(-c4noc(C)n4)cc23)c1` [Example 9], for which the pIC50 was 8.79.

Turning to `CCc1nc(-c2cc3c(-c4cccc(Cl)c4)nccc3[nH]c2=O)no1` [Example 29], the negative-log IC50 (pIC50) was 8.28.

On to `CCCc1noc(-c2cc3c(-c4cccc(F)c4)nccc3[nH]c2=O)n1` [Example 218], for which the pIC50 is 8.59.

For the molecule `CC(C)c1nc(-c2cc3c(-c4ccccc4F)nccc3[nH]c2=O)no1` [Example 112], the negative logarithm of the IC50 (pIC50) was 8.57.

For the molecule `COc1ccccc1-c1nccc2[nH]c(=O)c(-c3noc(C4CC4)n3)cc12` [Example 119], the pIC50 was 8.60.

As to `CC(C)c1nc(-c2cc3c(C4CC4)nccc3[nH]c2=O)no1` [Example 44], the pIC50 was 8.58.

As to `CCCCc1nccc2[nH]c(=O)c(-c3noc(CC)n3)cc12` [Example 19], the pIC50 is 8.20.

Turning to `CC(C)c1nc(-c2cc3c(-c4ccsc4)nccc3[nH]c2=O)no1` [Example 115], the negative logarithm of the IC50 (pIC50) was 8.82.

Turning to `CCc1nc(-c2cc3c(C4CC=CCC4)nccc3[nH]c2=O)no1` (stereo not drawn) [Example 25], the pIC50 was 8.74.

As for `CCCc1nc(-c2cc3c(-c4ccsc4)nccc3[nH]c2=O)no1` [Example 111], the negative logarithm of the IC50 (pIC50) was 8.69.

With `CCc1noc(-c2cc3c(-c4ccccc4C)nccc3[nH]c2=O)n1` [Example 205], the negative-log IC50 (pIC50) was 8.32.

Regarding `CC(C)c1noc(-c2cc3c(-c4ccccc4)nccc3[nH]c2=O)n1` [Example 225], the pIC50 is 8.67.

For `CCc1nc(-c2cc3c(-c4cccc(F)c4)nccc3[nH]c2=O)no1` [Example 27], the negative logarithm of the IC50 (pIC50) was 9.02.

For the molecule `O=c1[nH]c2ccnc(-c3ccc(F)cc3)c2cc1-c1noc(C2CC2)n1` [Example 54], the pIC50 is 8.92.

Regarding `O=c1[nH]c2ccnc(-c3cccs3)c2cc1-c1nc(C2CC2)no1` [Example 246], the pIC50 is 8.84.

On to `CCCc1nc(-c2cc3c(-c4ccccc4F)nccc3[nH]c2=O)no1` [Example 108], for which the pIC50 is 8.67.

In the case of `CCc1noc(-c2cc3c(-c4ccc(Cl)cc4)nccc3[nH]c2=O)n1` [Example 204], the negative-log IC50 (pIC50) is 8.26.

Regarding `Cc1nccc2[nH]c(=O)c(-c3noc(C4CC4)n3)cc12` [Example 1, 3-(5-cyclopropyl-1,2,4-oxadiazol-3-yl)-5-methyl-1,6-naphthyridin-2(1H)-one], the negative-log IC50 (pIC50) is 8.64.

`O=c1[nH]c2ccnc(-c3ccccc3Cl)c2cc1-c1noc(C2CC2)n1` [Example 117]: the pIC50 was 8.85.

Regarding `O=c1[nH]c2ccnc(-c3ccccc3F)c2cc1-c1nc(C2CC2)no1` [Example 236], the negative logarithm of the IC50 (pIC50) is 8.79.

On to `O=c1[nH]c2ccnc(C3CC3)c2cc1-c1noc(C2CC2)n1` [Example 51], for which the negative logarithm of the IC50 (pIC50) was 9.10.

As for `CCCc1noc(-c2cc3c(-c4ccsc4)nccc3[nH]c2=O)n1` [Example 222], the pIC50 is 8.83.

Turning to `COc1ccc(-c2nccc3[nH]c(=O)c(-c4noc(C5CC5)n4)cc23)cc1` [Example 59], the pIC50 is 8.70.

For `CCc1noc(-c2cc3c(-c4cccc(OC)c4)nccc3[nH]c2=O)n1` [Example 209], the pIC50 is 8.89.

Consider `CCc1noc(-c2cc3c(-c4ccccc4OC)nccc3[nH]c2=O)n1` [Example 208], for which the negative-log IC50 (pIC50) is 8.38.

Regarding `CCCCCc1nccc2[nH]c(=O)c(-c3noc(CC)n3)cc12` [Example 22], the pIC50 was 8.42.

For `CCCc1noc(-c2cc3c(-c4cccs4)nccc3[nH]c2=O)n1` [Example 221], the pIC50 is 9.14.

Turning to `CCCc1noc(-c2cc3c(-c4ccccc4F)nccc3[nH]c2=O)n1` [Example 217], the pIC50 was 8.87.

Take `CC(C)c1nc(-c2cc3c(-c4ccco4)nccc3[nH]c2=O)no1` [Example 113]: the pIC50 was 8.66.

In the case of `CCCc1nccc2[nH]c(=O)c(-c3noc(C4CC4)n3)cc12` [Example 49], the negative-log IC50 (pIC50) is 8.95.

With `CCCCc1nccc2[nH]c(=O)c(-c3nc(CC)no3)cc12` [Example 195], the pIC50 was 8.40.

With `CC(C)c1nc(-c2cc3c(-c4cccc(F)c4)nccc3[nH]c2=O)no1` [Example 46], the negative logarithm of the IC50 (pIC50) was 8.67.

On to `CC(C)c1noc(-c2cc3c(-c4ccsc4)nccc3[nH]c2=O)n1` [Example 231], for which the pIC50 was 9.15.

In the case of `Cc1cccc(-c2nccc3[nH]c(=O)c(-c4noc(C5CC5)n4)cc23)c1` [Example 57], the pIC50 is 8.81.

Take `CCc1noc(-c2cc3c(-c4ccc(C)cc4)nccc3[nH]c2=O)n1` [Example 207]: the pIC50 is 8.47.

Consider `CCc1noc(-c2cc3c(-c4ccccc4F)nccc3[nH]c2=O)n1` [Example 199], for which the pIC50 is 8.81.

As to `C=C(C)c1nc(-c2cc3c(C4CC4)nccc3[nH]c2=O)no1` [Example 60], the pIC50 is 8.70.

Consider `CCCc1noc(-c2cc3c(C4CC4)nccc3[nH]c2=O)n1` [Example 215], for which the pIC50 was 8.61.

Consider `C=Cc1nc(-c2cc3c(C4CC4)nccc3[nH]c2=O)no1` [Example 61], for which the pIC50 was 8.98.

Turning to `CCc1nc(-c2cc3c(-c4ccc(OC)cc4)nccc3[nH]c2=O)no1` [Example 33], the pIC50 was 8.26.

As to `CC(C)c1nc(-c2cc3c(-c4cccs4)nccc3[nH]c2=O)no1` [Example 114], the pIC50 was 8.97.

As to `CCCc1nc(-c2cc3c(-c4ccco4)nccc3[nH]c2=O)no1` [Example 109], the negative-log IC50 (pIC50) was 8.76.

`Cc1ccccc1-c1nccc2[nH]c(=O)c(-c3nc(C4CC4)no3)cc12` [Example 242]: the negative-log IC50 (pIC50) is 8.73.

`CCc1nc(-c2cc3c(-c4ccccc4C)nccc3[nH]c2=O)no1` [Example 97]: the pIC50 was 8.33.

Regarding `O=c1[nH]c2ccnc(-c3cccs3)c2cc1-c1noc(C2CC2)n1` [Example 122], the pIC50 is 9.06.

Regarding `O=c1[nH]c2ccnc(C3CC3)c2cc1-c1nc(C2CC2)no1` [Example 234], the negative logarithm of the IC50 (pIC50) is 9.08.

In the case of `Cc1nccc2[nH]c(=O)c(-c3nc(C4CC4)no3)cc12` [Example 232], the pIC50 was 8.19.

`CCc1nnc(-c2cc3c(-c4ccccc4)nccc3[nH]c2=O)o1` [Example 311]: the pIC50 was 8.72.

Take `CCc1nc(-c2cc3c(-c4ccccc4)nccc3[nH]c2=O)no1` [Example 26]: the negative-log IC50 (pIC50) is 9.17.

Turning to `CCc1nc(-c2cc3cnccc3[nH]c2=O)no1` [Example 12], the pIC50 was 8.10.

With `O=c1[nH]c2ccnc(-c3ccccc3)c2cc1-c1nc(C2CC2)no1` [Example 235], the pIC50 is 9.04.

For `CCc1nc(-c2cc3c(-c4ccc(Cl)s4)nccc3[nH]c2=O)no1` [Example 104], the pIC50 is 8.29.

In the case of `CCc1nc(-c2cc3c(-c4ccccc4OC)nccc3[nH]c2=O)no1` [Example 98], the pIC50 is 8.07.

Turning to `O=c1[nH]c2ccnc(-c3ccc(F)cc3)c2cc1-c1nc(C2CC2)no1` [Example 238], the pIC50 is 8.86.

For the molecule `CCCc1nc(-c2cc3c(-c4ccc(F)cc4)nccc3[nH]c2=O)no1` [Example 40], the pIC50 was 8.13.

Turning to `CCCc1noc(-c2cc3c(-c4ccccc4)nccc3[nH]c2=O)n1` [Example 216], the negative logarithm of the IC50 (pIC50) was 8.93.

Consider `Cc1ccccc1-c1nccc2[nH]c(=O)c(-c3noc(C4CC4)n3)cc12` [Example 118], for which the pIC50 is 8.89.

Consider `O=c1[nH]c2ccnc(-c3ccc(Cl)cc3)c2cc1-c1noc(C2CC2)n1` [Example 56], for which the negative logarithm of the IC50 (pIC50) was 8.57.

With `CCc1noc(-c2cc3c(-c4ccc(F)cc4)nccc3[nH]c2=O)n1` [Example 201], the pIC50 was 8.74.

With `CCCc1nc(-c2cc3c(-c4cccc(F)c4)nccc3[nH]c2=O)no1` [Example 39], the pIC50 was 8.54.

With `CC(C)c1noc(-c2cc3c(-c4cccc(F)c4)nccc3[nH]c2=O)n1` [Example 227], the negative logarithm of the IC50 (pIC50) is 8.84.

`CCCc1noc(-c2cc3c(-c4ccc(F)cc4)nccc3[nH]c2=O)n1` [Example 219]: the pIC50 was 8.69.

Consider `Cc1cccc(-c2nccc3[nH]c(=O)c(-c4nc(C5CC5)no4)cc23)c1` [Example 243], for which the negative logarithm of the IC50 (pIC50) is 8.74.

With `CC(C)c1noc(-c2cc3c(-c4cccs4)nccc3[nH]c2=O)n1` [Example 230], the pIC50 is 9.05.

For the molecule `CCc1nc(-c2cc3c(-c4ccc(F)cc4)nccc3[nH]c2=O)no1` [Example 28], the negative logarithm of the IC50 (pIC50) was 8.90.

For `COc1cccc(-c2nccc3[nH]c(=O)c(-c4noc(C5CC5)n4)cc23)c1` [Example 120], the pIC50 is 8.80.

For the molecule `Cc1ccc(-c2nccc3[nH]c(=O)c(-c4noc(C)n4)cc23)cc1` [Example 10], the pIC50 is 8.09.

Take `CCc1nc(-c2cc3c(-c4cccc(OC)c4)nccc3[nH]c2=O)no1` [Example 99]: the pIC50 was 8.78.

As to `CCCc1nc(-c2cc3c(C4CC4)nccc3[nH]c2=O)no1` [Example 37], the pIC50 is 8.41.

For `CCc1noc(-c2cc3c(C4CCCCC4)nccc3[nH]c2=O)n1` [Example 197], the pIC50 was 8.71.

In the case of `CCc1nc(-c2cc3c(-c4ccc(C)cc4)nccc3[nH]c2=O)no1` [Example 32], the negative-log IC50 (pIC50) was 8.48.

As for `O=c1[nH]c2ccnc(-c3ccco3)c2cc1-c1noc(C2CC2)n1` [Example 121], the negative-log IC50 (pIC50) was 9.11.

`CCCc1nc(-c2cc3c(-c4cccs4)nccc3[nH]c2=O)no1` [Example 110]: the negative-log IC50 (pIC50) was 8.94.

As usually defined, the pIC50 is the negative decadic logarithm of the IC50, by convention in mol/L.

These data come from patent US6172079A, “5-substituted-3-oxadiazolyl-1,6-naphthyridin-2(1H)-one derivatives” (Dainippon Pharmaceutical Co., Ltd., priority 1997, dated 2001).
